Legend:
[1] = Rancimat oxidative stability test; conditions: 100°C, 20 cc/min air
Experimental: The procedures described in Examples 1, 2 and 3 were used to prepare cocoa extracts which were manipulated further to produce two fractions from gel permeation chromatography. These two fractions are actually combined fractions A through C, and D and E (See Figure 1) whose antioxidant properties were compared against the synthetic antioxidants BHA and BHT.
Peanut Oil was pressed from unroasted peanuts after the skins were removed. 50µL of methanol solubilized antioxidant was added to each sample to aid in dispersion of the antioxidant. A control sample was prepared with 50µL of methanol containing no antioxidant.
The samples were evaluated in duplicate, for oxidative stability using the Rancimat stability test at 100°C and 20 cc/min of air. Experimental parameters were chosen to match those used with the Active Oxygen Method (AOM) or Swift Stability Test (Van Oosten et al., 1981). Results are reported in Table 8 as hours required to reach a peroxide level of 100 meq. Table 7: Concentrations of Antioxidants

[2] = test system: Human umbilical vein endothelial cells (HUVEC); assay: NO production by HUVEC, Griess reaction; type: cell-based
Experimental: Human umbilical vein endothelial cells (HUVEC) were obtained from Clonetics and cultures were carried out according to the manufacturer's specifications. HUVEC cells were seeded at 5,000 cells/cm^2 in 12-well plates (Falcon). After the third passage under the same conditions, they were allowed to reach confluence. The supernatant was renewed with fresh medium containing defined concentrations of bradykinin (25,50 and 100nM) or cocoa procyanidin fractions A-E (100µg/mL) as described in example 31. The culture was continued for 24 hr. and the cell free supernatants were collected and stored frozen prior to assessment of NO content as described below. In selected experiments, the NO synthase (NOS) antagonist, Nω-nitro-L-arginine methyl ester (L-NAME, 10µM) was added to assess the involvement of NOS in the observed NO production.
HUVEC NO production was estimated by measuring nitrite concentration in the culture supernatant by the Griess reaction. Griess reagent was 1% sulfanilamide, 0.1% N-(1-naphthyl)-ethylenediamine dihydrochloride. Briefly, 50µL aliquots were removed from the various supernatants in quadruplicate and incubated with 150µL of the Griess reagent. The absorbency at 540 nm was determined in a multiscan (Labsystems Multiskans MCC/340) apparatus. Sodium nitrite was used at defined concentrations to establish standard curves. […]

[3] = test system: Helicobacter pylori; assay: Disk diffusion bioassay; type: cell-based; conditions: control disk, 80ug, read-out: H. pylori Inhibition
Experimental: (§1) A study was conducted to evaluate the antimicrobial activity of procyanidin oligomers against Helicobacter pylori and Staphylococcus aureus. Pentamer enriched material was prepared as described in Example 13, Method A and analyzed as described in Example 14, Method C, where 89% was pentamer, and 11% was higher oligomers (n is 6 to 12). Purified pentamer (96.3%) was prepared as described in Example 14, Method D.
(§2) Helicobacter pylori and Staphylococcus aureus were obtained from the American Type Culture Collection (ATCC). For H. pylori, the vial was rehydrated with 0.5 mL Trypticase Soy broth and the suspension transferred to a slant of fresh TSA containing 5% defibrinated sheep blood. The slant was incubated at 37°C for 3 to 5 days under microaerophilic conditions in anaerobic jars (5 to 10% carbon dioxide; CampyPakPlus, BBL). When good growth was established in the pool of broth at the bottom of the slant, the broth was used to inoculate additional slants of TSA with sheep blood. Because viability decreased with continued subculturing, the broth harvested from the slants was pooled and stored at -80°C. Cultures for assay were used directly from the frozen vials. […]
(§3) A cell suspension of each culture was prepared (H. pylori, 10^8 to 10^9 cfu/mL; S. aureus 10^6 to 10^7 cfu/mL) and 0.5 mL spread onto TSA plates with 5% sheep blood. […] Zones of inhibition were measured following outgrowth. […]

[4] = test system: Staphylococcus aureus; assay: Disk diffusion bioassay; type: cell-based; conditions: read-out: S. aureus Inhibition
Experimental: as §1, §2, §3

In the case of `COc1ccc(O)c(C(C)(C)C)c1` [BHA, Butylated Hydroxyanisole], the “hours required to reach a peroxide level of 100 meq” value ([1]; 20 ppm nominal (actual levels in Table 7), control 10.5 ± 0.7) is reported as 13.5 ± 2.1 h and the “hours required to reach a peroxide level of 100 meq” value ([1]; 100 ppm nominal (actual levels in Table 7)) is reported as 14.0 ± 1.4 h.

For “bradykinin (RPPGFSPFR; Bradykinin; UniProt P01042 381-389, looked up)”, the “NO production by HUVEC” value ([2]; 25, 50 and 100nM, 24 hr) was “dose dependent release of NO” and the “NO release in the presence of L-NAME” value ([2]; L-NAME 10µM) was “completely inhibited”.

`Cc1ncc([N+](=O)[O-])n1CCO` [Metronidazole standard, metronidazole] gave a zone of inhibition at 80 µg/disc [3] of 11 mm.

For `CN[C@H](CC(C)C)C(=O)N[C@H]1C(=O)N[C@@H](CC(N)=O)C(=O)N[C@H]2C(=O)N[C@H]3C(=O)N[C@H](C(=O)N[C@H](C(=O)O)c4cc(O)cc(O)c4-c4cc3ccc4O)[C@H](O)c3ccc(c(Cl)c3)Oc3cc2cc(c3O[C@@H]2O[C@H](CO)[C@@H](O)[C@H](O)[C@H]2O[C@H]2C[C@](C)(N)[C@H](O)[C@H](C)O2)Oc2ccc(cc2Cl)[C@H]1O` [Vancomycin standard, vancomycin], the zone of inhibition at 30 µg/disc [4] was 15 mm.

Reference: patent EP2110134A1, “Cocoa extract compounds and methods for making and using the same” (MARS, INCORPORATED, priority 1996, dated 1997)
